The target in test [1] is T1, hOT7T175 (Homo sapiens, UniProt Q969F8, L364H). Put plainly: Intracellular Ca ion level-increasing activity using FLIPR in hOT7T175/CHO. The format is cell-based. More on the design: expressed in transfected cells; host or cells: CHO/dhfr- cells, obtained from ATCC. The settings on record: relative, Metastin (1-54) = 1.
Test [2] addresses T1, hOT7T175. Kind of test: hOT7T175 receptor binding activity: binding inhibition of Cy-5-labeled metastin (40-54) on hOT7T175-expressed CHO cells. More on the design: expressed in transfected cells; host or cells: CHO cells.

Numbered stars: 1 amine (or outer) side, 2 acyl side, 3 side chain; on linkers, the order of the positions; unused ones are H or OH. Square brackets hold non-standard residues; d marks the D form. Peptide text beside a SMILES is read from it. * marks the point of attachment. NαAmidinoTrp = N=C(N)N[C@@H](Cc1c[nH]c2ccccc12)C(=O)*; Propanoyl(3-indol-3-yl) = O=C(CCc1c[nH]c2ccccc12)*; Diphenylacetyl = O=C(C(c1ccccc1)c1ccccc1)*; X8 = CNC(=N)NCC[C@H](N[*:1])C(=O)[*:2]; Arg(Me) = CNC(=N)NCCC[C@H](N)C(=O)O; Cha = N[C@@H](CC1CCCCC1)C(=O)O; X2 = O=C(Cc1c[nH]c2ccccc12)*; Hexanoyl = CCCCCC(=O)*; azaGly = NNC(=O)O

As usually defined, the IC50 is the concentration that gives 50% inhibition. Higher therefore signals weaker potency.

T1 sequence (Q969F8 whole entry L364H): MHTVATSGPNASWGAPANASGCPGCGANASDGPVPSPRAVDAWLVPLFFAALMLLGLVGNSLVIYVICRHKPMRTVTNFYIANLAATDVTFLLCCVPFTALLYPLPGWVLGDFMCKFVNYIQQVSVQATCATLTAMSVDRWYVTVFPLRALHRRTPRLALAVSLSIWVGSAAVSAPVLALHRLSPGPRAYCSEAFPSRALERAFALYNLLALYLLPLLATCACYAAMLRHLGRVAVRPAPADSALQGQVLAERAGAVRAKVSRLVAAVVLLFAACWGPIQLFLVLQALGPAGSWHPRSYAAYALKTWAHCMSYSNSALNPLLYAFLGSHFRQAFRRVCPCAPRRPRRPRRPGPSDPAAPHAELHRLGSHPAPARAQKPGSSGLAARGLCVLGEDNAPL

As for `CNC(=N)NCCC[C@H](NC(=O)[C@H](CC(C)C)NC(=O)CNC(=O)[C@H](CC1CCCCC1)NC(=O)[C@H](CO)NC(=O)[C@H](CC(N)=O)NC(=O)[C@H](CC1CCCCC1)NC(=O)[C@H](CC(N)=O)NC(=O)[C@H](N)Cc1ccc(O)cc1)C(=O)N[C@@H](Cc1c[nH]c2ccccc12)C(N)=O` [Compound No. 182, D-Tyr-Asn-Cha-Asn-Ser-Cha-Gly-Leu-Arg(Me)-Trp-NH2] (H-[dY]N[Cha]NS[Cha]GL[Arg(Me)]W-NH2), the “Specific Activity (intracellular Ca ion level-increasing activity)” value in test [1] was 5. Also, the IC50 in test [2] was 0.098 µM.

For `CNC(=N)NCCC[C@H](NC(=O)[C@H](CC(C)C)NC(=O)NNC(=O)[C@H](Cc1ccccc1)NC(=O)[C@H](CO)NC(=O)[C@H](CC(N)=O)NC(=O)CCc1c[nH]c2ccccc12)C(=O)N[C@@H](Cc1ccccc1)C(N)=O` [Compound No. 260, 3-(3-Indolyl)propionyl-Asn-Ser-Phe-AzaGly-Leu-Arg(Me)-Phe-NH2] ({Propanoyl(3-indol-3-yl)}-NSF[azaGly]L[Arg(Me)]F-NH2), the “Specific Activity (intracellular Ca ion level-increasing activity)” value in test [1] stood at 5. The same compound yielded an IC50 in test [2] of 0.32 µM.

In the case of `CC(C)C[C@H](NC(=O)CNC(=O)[C@H](Cc1ccccc1)NC(=O)[C@H](CO)NC(=O)[C@H](CC(N)=O)NC(=O)[C@H](Cc1c[nH]c2ccccc12)NC(=O)[C@H](CC(N)=O)NC(=O)[C@@H](N)Cc1ccc(O)cc1)C(=O)N[C@@H](CCCNC(=N)N)C(=O)N[C@@H](Cc1ccc(Cl)cc1)C(N)=O` [Compound No. 130], in test [1], the “Specific Activity (intracellular Ca ion level-increasing activity)” value was 10. The compound also showed an IC50 in test [2] of 0.042 µM.

Turning to `CNC(=N)NCCC[C@H](NC(=O)[C@H](CC(C)C)NC(=O)NNC(=O)[C@H](Cc1ccccc1)NC(=O)[C@H](CO)NC(=O)[C@H](CC(N)=O)NC(=O)[C@@H](Cc1c[nH]c2ccccc12)NC(=O)[C@@H](CC(N)=O)NC(=O)[C@H](N)Cc1ccc(O)cc1)C(=O)N[C@@H](Cc1ccccc1)C(N)=O` [Compound No. 238, D-Tyr-D-Asn-D-Trp-Asn-Ser-Phe-AzaGly-Leu-Arg(Me)-Phe-NH2], the “Specific Activity (intracellular Ca ion level-increasing activity)” value in test [1] is recorded as 1. Besides, the IC50 in test [2] turned out to be 0.049 µM.

In the case of `CNC(=N)NCCC[C@H](NC(=O)[C@H](CC(C)C)NC(=O)NNC(=O)[C@H](Cc1ccccc1)NC(=O)[C@H](CO)NC(=O)[C@H](CC(N)=O)NC(=O)C(c1ccccc1)c1ccccc1)C(=O)N[C@@H](Cc1ccccc1)C(N)=O` [Compound No. 268, Diphenylacetyl-Asn-Ser-Phe-AzaGly-Leu-Arg(Me)-Phe-NH2] (Diphenylacetyl-NSF[azaGly]L[Arg(Me)]F-NH2), the “Specific Activity (intracellular Ca ion level-increasing activity)” value in test [1] came to 1. In test [2], this compound yielded an IC50 of 0.55 µM.

As for `CNC(=N)NCCC[C@H](NC(=O)[C@H](CC(C)C)NC(=O)CNC(=O)[C@H](Cc1ccccc1)NC(=O)[C@H](CO)NC(=O)[C@H](CC(N)=O)NC(=O)[C@H](CO)NC(=O)[C@H](CC(N)=O)NC(=O)[C@H](N)Cc1ccc(O)cc1)C(=O)N[C@@H](Cc1ccccc1)C(N)=O` [Compound No. 170] (H-[dY]NSNSFGL[Arg(Me)]F-NH2; N-terminus assumed), the “Specific Activity (intracellular Ca ion level-increasing activity)” value in test [1] is 1. This compound also yielded an IC50 in test [2] of 0.26 µM.

Take `CC(C)C[C@H](NC(=O)CNC(=O)[C@H](Cc1ccccc1)NC(=O)[C@H](CO)NC(=O)[C@H](CC(N)=O)NC(=O)[C@H](Cc1c[nH]c2ccccc12)NC(=O)[C@H](CC(N)=O)NC(=O)[C@@H](N)Cc1ccc(O)cc1)C(=O)N[C@@H](CCCNC(=N)N)C(=O)N[C@@H](Cc1ccc(Cl)c(Cl)c1)C(N)=O` [Compound No. 199]: in test [1], the “Specific Activity (intracellular Ca ion level-increasing activity)” value came to 3. The IC50 in test [2] is 0.47 µM.

On to `CNC(=N)NCCC[C@H](NC(=O)[C@H](CC(C)C)NC(=O)NNC(=O)[C@H](Cc1ccccc1)NC(=O)[C@H](Cc1ccccc1)NC(=O)[C@H](CO)NC(=O)[C@H](CC(N)=O)NC(=O)[C@H](Cc1ccccc1)NC(=O)[C@H](CC(N)=O)NC(=O)[C@H](N)Cc1ccc(O)cc1)C(=O)N[C@@H](Cc1ccccc1)C(N)=O` [Compound No. 270, D-Tyr-Asn-Phe-Asn-Ser-Phe-Phe-AzaGly-Leu-Arg(Me)-Phe-NH2] (H-[dY]NFNSFF[azaGly]L[Arg(Me)]F-NH2), for which the “Specific Activity (intracellular Ca ion level-increasing activity)” value in test [1] is reported as 1. Further, the IC50 in test [2] is 0.015 µM.

For `CNC(=N)NCC[C@H](NC(=O)[C@H](CC(C)C)NC(=O)CNC(=O)[C@H](Cc1ccccc1)NC(=O)[C@H](CO)NC(=O)[C@H](CC(N)=O)NC(=O)[C@H](Cc1c[nH]c2ccccc12)NC(=O)[C@H](CC(N)=O)NC(=O)[C@@H](N)Cc1ccc(O)cc1)C(=O)N[C@@H](Cc1ccccc1)C(N)=O` [Compound No. 311] (H-YNWNSFGL[X8]F-NH2), the “Specific Activity (intracellular Ca ion level-increasing activity)” value in test [1] is 1. The same compound registered an IC50 in test [2] of 0.47 µM.

Regarding `CNC(=N)NCCC[C@H](NC(=O)[C@H](CC(C)C)NC(=O)NNC(=O)[C@H](Cc1ccccc1)NC(=O)[C@H](CO)NC(=O)[C@H](CC(N)=O)NC(=O)[C@H](Cc1c[nH]c2ccccc12)NC(=N)N)C(=O)N[C@@H](Cc1ccccc1)C(N)=O` [Compound No. 273, Amidino-Trp-Asn-Ser-Phe-AzaGly-Leu-Arg(Me)-Phe-NH2] (NαAmidinoTrp-NSF[azaGly]L[Arg(Me)]F-NH2), the “Specific Activity (intracellular Ca ion level-increasing activity)” value in test [1] was determined as 5. Moreover, the IC50 in test [2] was 0.3 µM.

As for `CC(C)C[C@H](NC(=O)CNC(=O)[C@H](Cc1ccccc1)NC(=O)[C@H](CO)NC(=O)[C@H](CC(N)=O)NC(=O)CCc1c[nH]c2ccccc12)C(=O)N[C@@H](CCCNC(=N)N)C(=O)N[C@@H](Cc1ccccc1)C(N)=O` [Compound No. 114, 3-(3-Indolyl)propionyl-Asn-Ser-Phe-Gly-Leu-Arg-Phe-NH2] ({Propanoyl(3-indol-3-yl)}-NSFGLRF-NH2), in test [1], the “Specific Activity (intracellular Ca ion level-increasing activity)” value was determined as 3. The compound also had an IC50 in test [2] of 0.55 µM.

For `CNC(=N)NCCC[C@H](NC(=O)[C@H](CC(C)C)NC(=O)NNC(=O)[C@H](Cc1ccccc1)NC(=O)[C@H](CO)NC(=O)[C@H](CC(N)=O)NC(=O)Cc1c[nH]c2ccccc12)C(=O)N[C@@H](Cc1ccccc1)C(N)=O` [Compound No. 266, Indol-3-acetyl-Asn-Ser-Phe-AzaGly-Leu-Arg(Me)-Phe-NH2] (X2-NSF[azaGly]L[Arg(Me)]F-NH2), the “Specific Activity (intracellular Ca ion level-increasing activity)” value in test [1] worked out at 2. This compound also had an IC50 in test [2] of 0.23 µM.

In the case of `CNC(=N)NCCC[C@H](NC(=O)[C@H](CC(C)C)NC(=O)NNC(=O)[C@H](Cc1ccccc1)NC(=O)[C@H](CO)NC(=O)[C@H](CC(N)=O)NC(=O)[C@@H](N)Cc1c[nH]c2ccccc12)C(=O)N[C@@H](Cc1ccccc1)C(N)=O` [Compound No. 271, Trp-Asn-Ser-Phe-AzaGly-Leu-Arg(Me)-Phe-NH2] (H-WNSF[azaGly]L[Arg(Me)]F-NH2; N-terminus assumed), in test [1], the “Specific Activity (intracellular Ca ion level-increasing activity)” value is reported as 1. Also, in test [2], the IC50 stood at 0.12 µM.

As to `CCCCCC(=O)N[C@@H](CC(N)=O)C(=O)N[C@@H](CO)C(=O)N[C@@H](Cc1ccccc1)C(=O)NNC(=O)N[C@@H](CC(C)C)C(=O)N[C@@H](CCCNC(=N)NC)C(=O)N[C@@H](Cc1ccccc1)C(N)=O` [Compound No. 277, n-Hexanoyl-Asn-Ser-Phe-AzaGly-Leu-Arg(Me)-Phe-NH2] (Hexanoyl-NSF[azaGly]L[Arg(Me)]F-NH2), in test [1], the “Specific Activity (intracellular Ca ion level-increasing activity)” value came out at 2. The compound also had an IC50 in test [2] of 0.054 µM.

Source of the values: patent publication US8361968B2 (Takeda Pharmaceutical Company Limited, priority 2002, dated 2013).
